In experiment [1] the test system is P. aeruginosa PAO1. The experiment is described as follows: Minimum inhibitory concentration, broth dilution. It counts as cell-based. The following applies: Pseudomonas aeruginosa; 24 h incubation at 37 °C, strain PAO1. The method, then: P. aeruginosa PAO1 was chosen as a model microorganism[53] and was grown overnight in a Luria Bertani (LB) medium at 37 °C on an orbital shaker at 200 rpm. Minimum inhibitory concentrations (MICs) of quinolone and quinolone derivatives were determined against P. aeruginosa PAO1 by a broth dilution method. Overnight cultures were diluted 100-fold to give a cellular concentration of 10^7 CFU/mL. […] The assays were performed at least three times.
On the technique in general: Broth dilution looks for growth in wells or tubes with falling amounts of substance.

A further experiment relates to MCF7/ADR cells. The experiment in a line: MTT cell viability assay, DOX-resistant MCF7/ADR. Format: cell-based, human. The note with it: for IC50: Homo sapiens, NCI/ADR-RES, 72 h treatment, MTT; for R.I. (resistance index): MCF7/ADR vs MCF7. On the procedure: (§1) The 3-(4,5-dimethylthiazol-2-yl)-2,5-diphenyltetrazolium bromide (MTT) assay was performed on all the cell lines tested as previously described[52] with minor modifications. Briefly, according to the growth profiles previously defined for each cell line, adequate numbers of cells were plated in each well of a 96-well plate in 0.1 mL of complete culture medium. Cells were allowed to attach for 24 h before the treatment at 37 °C for 72 h with the compounds at concentrations ranging between 0.1 and 75 μM, bringing the final volume to 0.2 mL/well. Each experiment included eight replications per concentration tested; control samples were run with 0.2% DMSO. At the end of the incubation period, MTT (0.05 mL of a 2 mg/mL stock solution in PBS) was added to each well for 3 h at 37 °C. Cell supernatants were then carefully removed, the blue formazan crystals formed through MTT reduction by metabolically active cells were dissolved in 0.120 mL of DMSO, and the corresponding optical densities were measured at 570 nm using a Universal Microplate Reader EL800 (Bio-Tek, Winooski, VT).
(§2) IC50 values were estimated from the resulting concentration–response curves by nonlinear regression analysis using GraphPad Prism software, v. 5.0 (GraphPad, San Diego, CA, USA). Differences between IC50 values were evaluated statistically by analysis of variance with a Bonferroni post-test for multiple comparisons.
(Formazan colour is commonly taken as a measure of viable cells.)

For the next experiment, the system named is HCT116 cells. The experiment is described as follows: MTT cell viability assay, HCT116. Format: cell-based. The following applies: Homo sapiens, HCT-116. The method, then:
(§3) The cell lines DU145 (HTB-81, human prostate carcinoma), PC3 (CRL-1435, human prostate adenocarcinoma), MCF7 (HTB-22, human breast adenocarcinoma), MDA-MB231 (HTB-26, human breast adenocarcinoma), and HCT116 (CCL-247, human colorectal carcinoma) were obtained from ATCC (American Type Culture Collection, Manassas, VA, USA); WH1 human fibroblasts were kindly provided by Dr. Guven.[51] All the cells were maintained under standard culture conditions (37 °C; 5% CO2) in the RMPI1640 medium (PC3, MCF7, and MDA-MB231 cells), while DU145 and HCT116 cells were in the DMEM and Iscove’s medium (WH1 cells) supplemented with 10% fetal calf serum, 1% glutamine, and 1% antibiotics mixture; for HCT116 and DU145 cells, 1% sodium pyruvate and 1% non-essential amino acids were also added to the culture medium.
as §1, §2

The next experiment has as its system MDA-MB231 cells. The experiment in a line: MTT cell viability assay, MDA-MB231. It counts as cell-based. The following applies: Homo sapiens, MDA-MB-231. The method, then: as §3, §1, §2
The next experiment concerns MCF7 cells. The experiment in a line: MTT cell viability assay, MCF7. Format: cell-based. The following applies: Homo sapiens, 72 h treatment, MTT, read-out: IC50 MCF7. On the procedure:
as §3, §1, §2

The test system of experiment [2] is PC3 cells. The experiment is described as follows: MTT cell viability assay, PC3. The following applies: Homo sapiens, PC-3. Format: cell-based. The method, then: as §3, §1, §2
The subject of experiment [3] is DU145 cells. The experiment in a line: MTT cell viability assay, DU145. Format: cell-based. The following applies: Homo sapiens, DU-145. The method, then: as §3, §1, §2
In experiment [4] the test system is PC3 cells. The experiment in a line: MTT assay with 1 h irradiation, PC3. It counts as cell-based, human. The following applies: 24 h treatment, 1 h white or blue light, 48 h drug-free medium. On the procedure: (§4) To evaluate the contribution of NO release on cell viability, the MTT assay was performed on DU145 and PC3 cells following treatment with 7b and 7c with 1 h irradiation and 48 h incubation in a drug-free medium.
as §2

In experiment [5] the test system is DU145 cells. The experiment in a line: MTT assay with 1 h irradiation, DU145. It counts as cell-based, human. The following applies: 24 h treatment, 1 h white or blue light, 48 h drug-free medium. On the procedure: as §4, §2
The next experiment has as its system HBL100 cells. The experiment is described as follows: MTT cell viability assay, non-tumorigenic HBL100. It counts as cell-based. The note with it: Homo sapiens, HBL-100, 72 h treatment. On the procedure: as §1, §2
In the next experiment the test system is WH1 human fibroblasts. The experiment is described as follows: MTT cell viability assay, WH1 fibroblasts. Format: cell-based. The note with it: Fibroblast, 72 h treatment. The method, then:
as §3, §1, §2

In another experiment the test system is S. aureus ATCC 6538P. The experiment is described as follows: Antimicrobial photo-inactivation test, S. aureus. It counts as cell-based, Staphylococcus aureus. The note with it: 10 μM, 10 min dark incubation, blue light 20 J/cm^2. The method, then:
(§5) Upon the overnight growth of P. aeruginosa PAO1 and S. aureus ATCC6538P (methicillin susceptible S. aureus, MSSA), cultures were diluted in phosphate buffer (PBS–KH2PO4/K2HPO4, 10 mM, pH 7.4) to reach a concentration of ∼10^6 CFU/mL. Compound 7c was added to a cell suspension at a final concentration of 10 μM. Cells were incubated in the dark for 10 min and then irradiated under light at […] (20 J/cm^2) or incubated in the dark as a control. Soon after irradiation, the bacterial concentration was evaluated by the viability count technique. Briefly, an aliquot of each sample was 10-fold serially diluted in PBS and a volume of 10 μL of each diluted and undiluted sample was inoculated on LB agar. After overnight incubation at 37 °C, the corresponding cellular concentration was calculated and expressed as CFU/mL.

Experiment [6] deals with P. aeruginosa PAO1. The experiment in a line: Antimicrobial photo-inactivation test, P. aeruginosa. The note with it: 10 μM, 10 min dark incubation, 405 ± 10 nm, 20 J/cm^2. Format: cell-based, Pseudomonas aeruginosa. On the procedure:
as §5

The mark [7] stands for this setting: 72 h treatment, MTT, read-out: IC50 HCT116.
Where [8] appears, read: 72 h treatment, MTT, read-out: IC50 MDA-MB231.
Setting [9] is: 72 h treatment, MTT, read-out: IC50 PC3.
Where [10] appears, read: 72 h treatment, MTT, read-out: IC50 DU145.
Setting [11] is: supplement csv, unit inferred, read-out: DU145 IC50.

≈ marks a conversion by molar mass, not a printed value. Where two headings read alike, the source gives them in different places. Where only a bound is given, the exact number is not on record here.

As a reminder, the MIC is the lowest concentration found to suppress growth. Usually IC50 stands for the midpoint of a concentration-inhibition curve. Turning to `O=C(O)c1cn(C2CC2)c2cc(N3CCNCC3)c(F)cc2c1=O` [Cip, Ciprofloxacin, reference compound], the MIC against P. aeruginosa PAO1 [1] was 1.82 ± 1.19 µg/mL (≈ 5.49 µM). For the same molecule, the IC50 in the experiment with MCF7/ADR cells worked out at 19.1 ± 0.5 µM; in the experiment on HCT116 cells (setting [7]) it was 31.5 ± 1.5 µM; in the experiment with MDA-MB231 cells (setting [8]) it was 19.9 ± 3.6 µM; in the experiment with MCF7 cells, 8.85 ± 0.09 µM; with PC3 cells [2] (setting [9]) it was 33.9 ± 2.9 µM; with DU145 cells [3] (setting [10]), 24.9 ± 0.8 µM.

With `O=C(O)c1cn(C2CC2)c2cc(N3CCN(CCCNc4ccc([N+](=O)[O-])c(C(F)(F)F)c4)CC3)c(F)cc2c1=O` [Compound 7b, 1-Cyclopropyl-6-fluoro-7-(4-(3-((4-nitro-3-(trifluoromethyl)phenyl)amino)propyl)piperazin-1-yl)-4-oxo-1,4-dihydroquinoline-3-carboxylic Acid], the IC50 with MCF7/ADR cells is 23.6 ± 3.6 µM; in the experiment on HCT116 cells (setting [7]), 1.83 µM; in the experiment with HBL100 cells it was 9.19 ± 0.66 µM; in the experiment with MDA-MB231 cells (setting [8]), less than 2.5 µM; with MDA-MB231 cells (supplement csv, unit inferred, read-out: MDA-MB231 IC50), 2.51 ± 0.43 µM; in the experiment with MCF7 cells, 5.23 ± 0.82 µM. Moreover, the IC50 with PC3 cells [2] (supplement csv, unit inferred, read-out: PC3 IC50) was 3.02 ± 0.59 µM; in the experiment on DU145 cells [3] (setting [10]) it was less than 3 µM; in the experiment with DU145 cells [3] (setting [11]), 2.42 ± 0.9 µM; in the experiment on WH1 human fibroblasts it was 7.05 ± 1.2 µM. Moreover, the “R.I. (resistance index)” value in the experiment with MCF7/ADR cells was 4.5. The “IC50, irradiated vs kept in the dark, PC3” value in the experiment on PC3 cells [4] was “no differences in IC50 values”. Also, in the experiment with DU145 cells [5], the “IC50, irradiated vs kept in the dark, DU145” value was “no differences in IC50 values”.

For `CCn1cc(C(=O)O)c(=O)c2cc(F)c(N3CCN(CCNc4ccc([N+](=O)[O-])c(C(F)(F)F)c4)CC3)cc21` [Compound 7c, 1-Ethyl-6-fluoro-7-(4-(2-((4-nitro-3-(trifluoromethyl)phenyl)amino)ethyl)piperazin-1-yl)-4-oxo-1,4-dihydroquinoline-3-carboxylic Acid], in the experiment with S. aureus ATCC 6538P, the “decrease in viable S. aureus with respect to the dark incubated control” value came out at 2 log unit. Moreover, in the experiment with P. aeruginosa PAO1 [6], the “antimicrobial activity upon blue light irradiation” value is on record as “did not show any antimicrobial activity”. The IC50 in the experiment on MCF7/ADR cells came to 18.3 ± 1.4 µM; with HCT116 cells (supplement csv, unit inferred, read-out: HCT116 IC50), 2.15 ± 0.39 µM; in the experiment on HBL100 cells, 11.1 ± 0.2 µM; in the experiment with MDA-MB231 cells (setting [8]), 1.52 µM; in the experiment on MCF7 cells, 2.27 µM; with PC3 cells [2] (setting [9]), 2.33 µM. Also, the IC50 came out at 1.57 ± 0.59 µM with DU145 cells [3] (setting [11]) and 3.51 ± 0.4 µM in the experiment on WH1 human fibroblasts. Moreover, the “R.I. (resistance index)” value with MCF7/ADR cells is recorded as 8.1. Further, the “IC50, irradiated vs kept in the dark, PC3” value in the experiment on PC3 cells [4] is “no differences in IC50 values”. In the experiment on DU145 cells [5], the “IC50, irradiated vs kept in the dark, DU145” value is “no differences in IC50 values”.

Molecule `CCn1cc(C(=O)O)c(=O)c2cc(F)c(N3CCNCC3)cc21` [Nor, Norfloxacin, reference compound] showed an MIC against P. aeruginosa PAO1 [1] of 4.16 ± 1.8 µg/mL (≈ 13 µM). Moreover, the IC50 in the experiment on MCF7/ADR cells is 20.1 ± 1.4 µM; in the experiment on HCT116 cells (setting [7]), 12.5 ± 2.6 µM; in the experiment with HBL100 cells it was 12.4 ± 0.8 µM; in the experiment with MDA-MB231 cells (setting [8]), 14.9 ± 2.7 µM; with MCF7 cells, 19.4 ± 0.7 µM; in the experiment on PC3 cells [2] (setting [9]), 33.6 ± 3 µM. Besides, the results for the IC50 with DU145 cells [3] (setting [10]) and in the experiment on WH1 human fibroblasts were 12 ± 0.6 µM and 14.1 ± 2.1 µM, respectively. The “R.I. (resistance index)” value with MCF7/ADR cells is 1.0.

For the origin of these results see article PMC8389907 (Journal of Medicinal Chemistry, 2021).
